#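 Test compounds were applied to cells in 96-well plates for 48 hours at 5 doses. Here, GI50 denotes the concentration required for 50% inhibition of growth.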 Active and inactive are the calls of the source. Cut-off read from the data, not from the text of the source: active = GI50 up to about 1.1 µM and inactive = higher.
# How the values were obtained:
# Test in all cases: NCI-60 cell line screen, 48 h
# NCI-H522 = test system: NCI-H522
# U-251 = test system: U-251
# SF-268 = test system: SF-268
# HOP-92 = test system: HOP-92
# MOLT-4 = test system: MOLT-4
# UACC-62 = test system: UACC-62
# HCC 2998 = test system: HCC 2998
# COLO 205 = test system: COLO 205
# DMS-273 = test system: DMS-273
# SW-620 = test system: SW-620
# SK-OV-3 = test system: SK-OV-3
# IGROV-1 = test system: IGROV-1
# 786-0 = test system: 786-0
# CCRF-CEM = test system: CCRF-CEM
# KM-20L2 = test system: KM-20L2
# EKVX = test system: EKVX
# A549 = test system: A549
# HCT-116 = test system: HCT-116
# SF-295 = test system: SF-295
# DMS-114 = test system: DMS-114
# SR = test system: SR
# LXFL 529 = test system: LXFL 529
# DLD-1 = test system: DLD-1
# HCT-15 = test system: HCT-15
# RXF 631 = test system: RXF 631
# NCI-H460 = test system: NCI-H460
# OVCAR-8 = test system: OVCAR-8
# UO-31 = test system: UO-31
# K562 = test system: K562
# RPMI-8226 = test system: RPMI-8226
# NCI-H23 = test system: NCI-H23
# SN12C = test system: SN12C
# Malme-3M = test system: Malme-3M
# OVCAR-5 = test system: OVCAR-5
# HT-29 = test system: HT-29
# HOP-62 = test system: HOP-62
# ACHN = test system: ACHN
# CAKI-1 = test system: CAKI-1
# NCI-H226 = test system: NCI-H226
# HL-60 = test system: HL-60
# RXF 393 = test system: RXF 393
# M19-MEL = test system: M19-MEL
# LOX IMVI = test system: LOX IMVI
# M14 = test system: M14
# XF498 = test system: XF498
# OVCAR-3 = test system: OVCAR-3
# UACC-257 = test system: UACC-257
# SNB-19 = test system: SNB-19
# SF-539 = test system: SF-539
# OVCAR-4 = test system: OVCAR-4
# KM12 = test system: KM12
# SK-MEL-2 = test system: SK-MEL-2
# SNB-75 = test system: SNB-75
# NCI/ADR-RES = test system: NCI/ADR-RES
# MDA-MB-231 = test system: MDA-MB-231
# HOP-18 = test system: HOP-18
# PC-3 = test system: PC-3
# SK-MEL-5 = test system: SK-MEL-5
# MDA-N = test system: MDA-N
# T47D = test system: T47D
# MCF7 = test system: MCF7
# DU-145 = test system: DU-145
# SNB-78 = test system: SNB-78
# BT-549 = test system: BT-549
# SK-MEL-28 = test system: SK-MEL-28
# A498 = test system: A498
# TK-10 = test system: TK-10
smiles,measurement,setting,value
COC(=O)c1c(CC#N)cccc1CC#N,GI50,NCI-H522,> 100 µM (inactive)
same,GI50,U-251,> 100 µM (inactive)
same,GI50,SF-268,> 100 µM (inactive)
same,GI50,HOP-92,> 100 µM (inactive)
same,GI50,MOLT-4,> 100 µM (inactive)
same,GI50,UACC-62,> 100 µM (inactive)
same,GI50,HCC 2998,> 100 µM (inactive)
same,GI50,COLO 205,> 100 µM (inactive)
same,GI50,DMS-273,> 100 µM (inactive)
same,GI50,SW-620,> 100 µM (inactive)
same,GI50,SK-OV-3,> 100 µM (inactive)
same,GI50,IGROV-1,> 100 µM (inactive)
same,GI50,786-0,> 100 µM (inactive)
same,GI50,CCRF-CEM,> 100 µM (inactive)
same,GI50,KM-20L2,> 100 µM (inactive)
same,GI50,EKVX,> 100 µM (inactive)
same,GI50,A549,> 100 µM (inactive)
same,GI50,HCT-116,> 100 µM (inactive)
same,GI50,SF-295,> 100 µM (inactive)
same,GI50,DMS-114,> 100 µM (inactive)
same,GI50,SR,> 100 µM (inactive)
same,GI50,LXFL 529,> 100 µM (inactive)
same,GI50,DLD-1,> 100 µM (inactive)
same,GI50,HCT-15,> 100 µM
same,GI50,RXF 631,> 100 µM (inactive)
same,GI50,NCI-H460,> 100 µM (inactive)
same,GI50,OVCAR-8,> 100 µM (inactive)
same,GI50,UO-31,> 100 µM (inactive)
same,GI50,K562,> 100 µM (inactive)
same,GI50,RPMI-8226,> 100 µM (inactive)
same,GI50,NCI-H23,> 100 µM (inactive)
same,GI50,SN12C,> 100 µM (inactive)
same,GI50,Malme-3M,> 100 µM (inactive)
same,GI50,OVCAR-5,> 100 µM (inactive)
same,GI50,HT-29,> 100 µM (inactive)
same,GI50,HOP-62,> 100 µM (inactive)
same,GI50,ACHN,> 100 µM (inactive)
same,GI50,CAKI-1,> 100 µM (inactive)
same,GI50,NCI-H226,> 100 µM (inactive)
same,GI50,HL-60,> 100 µM (inactive)
same,GI50,RXF 393,> 100 µM (inactive)
same,GI50,M19-MEL,> 100 µM (inactive)
same,GI50,LOX IMVI,> 100 µM (inactive)
same,GI50,M14,> 100 µM (inactive)
same,GI50,XF498,> 100 µM (inactive)
same,GI50,OVCAR-3,> 100 µM (inactive)
same,GI50,UACC-257,> 100 µM (inactive)
same,GI50,SNB-19,> 100 µM (inactive)
same,GI50,SF-539,> 100 µM (inactive)
same,GI50,OVCAR-4,> 100 µM (inactive)
same,GI50,KM12,> 100 µM (inactive)
same,GI50,SK-MEL-2,> 100 µM (inactive)
same,GI50,SNB-75,> 100 µM (inactive)
COc1cccc2c1C(=O)c1c(O)c3c(c(O)c1C2=O)C[C@@](O)(C(=O)CO)C[C@@H]3OC1CC(N)CC(C)O1 (stereo partly drawn),GI50,NCI-H522,0.038 µM (active)
same,GI50,NCI/ADR-RES,3.67 µM (inactive)
same,GI50,MDA-MB-231,0.0612 µM (active)
same,GI50,SF-268,0.0451 µM (active)
same,GI50,HOP-92,0.0416 µM (active)
same,GI50,UACC-62,0.0254 µM (active)
same,GI50,HOP-18,0.0348 µM (active)
same,GI50,HCC 2998,0.0706 µM (active)
same,GI50,COLO 205,0.042 µM (active)
same,GI50,SK-OV-3,0.0521 µM (active)
same,GI50,PC-3,0.027 µM (active)
same,GI50,786-0,0.0247 µM (active)
same,GI50,CCRF-CEM,0.0267 µM (active)
same,GI50,KM-20L2,0.0695 µM (active)
same,GI50,EKVX,0.0847 µM (active)
same,GI50,SK-MEL-5,0.0371 µM (active)
same,GI50,SF-295,0.0239 µM (active)
same,GI50,SR,0.00266 µM (active)
same,GI50,LXFL 529,0.0462 µM (active)
same,GI50,DLD-1,0.092 µM (active)
same,GI50,RXF 631,0.0301 µM (active)
same,GI50,MDA-N,0.0955 µM (active)
same,GI50,T47D,0.0233 µM (active)
same,GI50,MCF7,0.024 µM (active)
same,GI50,SN12C,0.0299 µM (active)
same,GI50,Malme-3M,0.0284 µM (active)
same,GI50,OVCAR-5,0.074 µM (active)
same,GI50,HT-29,0.035 µM (active)
same,GI50,DU-145,0.0267 µM (active)
same,GI50,HOP-62,0.0221 µM (active)
same,GI50,M19-MEL,0.0314 µM (active)
same,GI50,M14,0.0803 µM (active)
same,GI50,OVCAR-3,0.0547 µM (active)
same,GI50,UACC-257,0.051 µM (active)
same,GI50,SNB-78,0.128 µM (active)
same,GI50,BT-549,0.0283 µM (active)
same,GI50,OVCAR-4,0.046 µM (active)
same,GI50,SNB-75,0.0402 µM (active)
Cc1ccccc1NC(=O)C(=O)C1CN(c2ccccc2)N=C1N (stereo not drawn),GI50,NCI-H522,> 100 µM (inactive)
same,GI50,U-251,> 100 µM (inactive)
same,GI50,SF-268,> 100 µM (inactive)
same,GI50,HOP-92,> 100 µM (inactive)
same,GI50,MOLT-4,> 100 µM (inactive)
same,GI50,HCC 2998,> 100 µM (inactive)
same,GI50,SK-OV-3,> 100 µM (inactive)
same,GI50,IGROV-1,> 100 µM (inactive)
same,GI50,786-0,> 100 µM (inactive)
same,GI50,CCRF-CEM,> 100 µM (inactive)
same,GI50,KM-20L2,> 100 µM (inactive)
same,GI50,EKVX,> 100 µM (inactive)
same,GI50,A549,> 100 µM (inactive)
same,GI50,SK-MEL-5,> 10 µM (inactive)
same,GI50,HCT-116,> 100 µM (inactive)
same,GI50,SK-MEL-28,> 100 µM (inactive)
same,GI50,SR,> 100 µM (inactive)
same,GI50,LXFL 529,> 100 µM (inactive)
same,GI50,DLD-1,> 100 µM (inactive)
same,GI50,RXF 631,> 100 µM (inactive)
same,GI50,NCI-H460,> 100 µM (inactive)
same,GI50,OVCAR-8,> 100 µM (inactive)
same,GI50,UO-31,> 100 µM (inactive)
same,GI50,A498,> 100 µM (inactive)
same,GI50,K562,> 100 µM (inactive)
same,GI50,NCI-H23,> 100 µM (inactive)
same,GI50,SN12C,> 100 µM (inactive)
same,GI50,Malme-3M,> 100 µM (inactive)
same,GI50,HT-29,> 100 µM (inactive)
same,GI50,HOP-62,> 100 µM (inactive)
same,GI50,CAKI-1,> 100 µM (inactive)
same,GI50,NCI-H226,> 100 µM (inactive)
same,GI50,HL-60,> 100 µM (inactive)
same,GI50,RXF 393,> 100 µM (inactive)
same,GI50,M19-MEL,> 100 µM (inactive)
same,GI50,M14,> 100 µM (inactive)
same,GI50,XF498,> 100 µM (inactive)
same,GI50,OVCAR-3,> 100 µM (inactive)
same,GI50,UACC-257,> 100 µM (inactive)
same,GI50,SNB-78,> 100 µM (inactive)
same,GI50,SNB-19,> 100 µM (inactive)
same,GI50,SF-539,> 100 µM (inactive)
same,GI50,OVCAR-4,> 100 µM (inactive)
same,GI50,SNB-75,86.5 µM (inactive)
[N-]=[N+]=NC1C(Cl)C(=O)NC(=O)N1[C@H]1C[C@H](O)[C@@H](CO)O1 (stereo partly drawn),GI50,TK-10,> 100 µM (inactive)
same,GI50,U-251,> 100 µM (inactive)
same,GI50,HOP-92,> 100 µM (inactive)
same,GI50,MOLT-4,> 100 µM (inactive)
same,GI50,UACC-62,> 100 µM (inactive)
same,GI50,HCC 2998,> 100 µM (inactive)
same,GI50,COLO 205,> 100 µM (inactive)
same,GI50,DMS-273,> 100 µM (inactive)
same,GI50,SW-620,> 100 µM (inactive)
same,GI50,SK-OV-3,> 100 µM (inactive)
same,GI50,IGROV-1,> 100 µM (inactive)
same,GI50,786-0,> 100 µM (inactive)
same,GI50,KM-20L2,> 100 µM (inactive)
same,GI50,EKVX,> 100 µM (inactive)
same,GI50,A549,> 100 µM (inactive)
same,GI50,SF-295,> 100 µM (inactive)
same,GI50,SK-MEL-28,> 100 µM (inactive)
same,GI50,DMS-114,> 100 µM (inactive)
same,GI50,LXFL 529,> 100 µM (inactive)
same,GI50,DLD-1,> 100 µM (inactive)
same,GI50,RXF 631,> 100 µM (inactive)
same,GI50,NCI-H460,> 100 µM (inactive)
same,GI50,OVCAR-8,> 100 µM (inactive)
same,GI50,UO-31,> 100 µM (inactive)
same,GI50,A498,> 100 µM (inactive)
same,GI50,K562,> 100 µM (inactive)
same,GI50,NCI-H23,> 100 µM (inactive)
same,GI50,SN12C,> 100 µM (inactive)
same,GI50,Malme-3M,13.3 µM (inactive)
same,GI50,OVCAR-5,> 100 µM (inactive)
same,GI50,HT-29,> 100 µM (inactive)
same,GI50,HOP-62,> 100 µM (inactive)
same,GI50,ACHN,> 100 µM (inactive)
same,GI50,CAKI-1,> 100 µM (inactive)
same,GI50,HL-60,> 100 µM (inactive)
same,GI50,RXF 393,> 100 µM (inactive)
same,GI50,LOX IMVI,> 100 µM (inactive)
same,GI50,M14,> 100 µM (inactive)
same,GI50,XF498,> 100 µM (inactive)
same,GI50,OVCAR-3,> 100 µM (inactive)
same,GI50,UACC-257,> 100 µM (inactive)
same,GI50,SNB-78,> 100 µM (inactive)
same,GI50,SNB-19,> 100 µM (inactive)
same,GI50,SF-539,> 100 µM (inactive)
same,GI50,OVCAR-4,> 100 µM (inactive)
same,GI50,KM12,> 100 µM (inactive)
same,GI50,SK-MEL-2,> 100 µM (inactive)
same,GI50,SNB-75,> 100 µM (inactive)

# From ChEMBL document CHEMBL1201862, “PubChem BioAssay data set” (2004)
